Source: patent publication US20260258033A1, “2,7-Naphthyridine Compounds as MASTL Inhibitors” (Pfizer Inc., priority 2022, published 2026)
pIC50: −log10 of the molar value.

What was measured:
[1] = biological target: T1, Full-length human recombinant N-term FLAG-tagged MASTL protein (Homo sapiens, UniProt Q96GX5); assay: MASTL enzyme kinase assay (CHEF PhosphoSens); details: MASTL Ki (nM), 3 nM MASTL, 1 mM ATP, room temperature; geometric mean of at least 3 independent determinations (* denotes n = 2)
T1 sequence (Q96GX5 1-879): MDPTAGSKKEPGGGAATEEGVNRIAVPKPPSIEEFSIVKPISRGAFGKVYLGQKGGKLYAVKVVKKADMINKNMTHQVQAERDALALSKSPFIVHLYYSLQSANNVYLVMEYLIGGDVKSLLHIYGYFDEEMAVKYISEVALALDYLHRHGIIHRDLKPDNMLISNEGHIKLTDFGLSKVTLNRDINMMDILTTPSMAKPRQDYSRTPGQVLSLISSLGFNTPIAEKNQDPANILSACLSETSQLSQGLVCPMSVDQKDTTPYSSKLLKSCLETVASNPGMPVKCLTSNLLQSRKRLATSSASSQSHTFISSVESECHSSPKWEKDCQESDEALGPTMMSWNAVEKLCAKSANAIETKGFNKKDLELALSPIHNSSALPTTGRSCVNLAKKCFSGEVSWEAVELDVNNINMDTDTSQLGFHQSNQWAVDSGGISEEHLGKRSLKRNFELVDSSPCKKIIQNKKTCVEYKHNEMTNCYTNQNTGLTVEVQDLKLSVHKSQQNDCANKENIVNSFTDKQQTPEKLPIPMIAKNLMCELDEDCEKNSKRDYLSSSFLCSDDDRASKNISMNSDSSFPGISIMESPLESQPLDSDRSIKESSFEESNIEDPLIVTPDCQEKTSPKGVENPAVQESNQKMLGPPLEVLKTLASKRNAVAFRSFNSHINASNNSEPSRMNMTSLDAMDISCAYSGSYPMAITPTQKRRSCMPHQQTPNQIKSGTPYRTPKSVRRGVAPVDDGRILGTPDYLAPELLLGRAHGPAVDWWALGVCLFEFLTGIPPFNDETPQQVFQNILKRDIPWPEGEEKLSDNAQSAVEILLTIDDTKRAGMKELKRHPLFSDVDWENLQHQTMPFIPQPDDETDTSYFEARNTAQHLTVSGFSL
Source text: MASTL enzyme kinase assay was used to measure the inhibition constant (Ki) of Examples of the present invention.
Full-length human recombinant N-term FLAG-tagged MASTL protein (construct LJIC-3077G2), activated by CDK1, was produced at Pfizer Inc by expression in baculovirus-infected insect cells. All reagents were purchased from Sigma-Aldrich, Inc (St. Louis, MO), unless specified otherwise. Tween™ 20 detergent (10% Solution) was purchased from EMD Millipore Corp (Billerica, MA). The CHEF phosphoacceptor peptide substrate (AQT0693) was purchased from AssayQuant technologies, Inc (Marlboro, MA). […] The reactions contained 1 mM ATP and were initiated by the addition of enzyme. Initial reaction velocities were determined by following the fluorescence (λex=360 nm, λem=485 nm) of appropriate CHEF peptide substrate for 120 minutes in an end-point mode in a SpectraMax Paradigm Microplate Reader (Molecular Devices, LLC. San Jose, California). The extents of reactions were estimated to be <20%.

[2] = tested on: breast cancer cells; details: in breast cancer cells; Kang et al., Pharmaceuticals 2021; read-out: cellular IC50; cited from earlier work

Row | Ki [1] | SMILES | pIC50 [2]
1 | 0.075 nM | Cn1nncc1-c1cc2cc(Nc3cc(C(C)(N)CC(F)(F)F)ccn3)ncc2c(N)n1 (single isomer, unassigned) [Example 26, N^6-(4-(2-amino-4,4,4-trifluorobutan-2-yl)pyridin-2-yl)-3-(1-methyl-1H-1,2,3-triazol-5-yl)-2,7-naphthyridine-1,6-diamine] | –
2 | 0.093 nM | Cn1nncc1-c1cc2cc(Nc3cc(C(C)(N)C(F)(F)F)ccn3)ncc2c(N)n1 (single isomer, unassigned) [Example 28, N^6-(4-(2-amino-1,1,1-trifluoropropan-2-yl)pyridin-2-yl)-3-(1-methyl-1H-1,2,3-triazol-5-yl)-2,7-naphthyridine-1,6-diamine] | –
3 | 0.17 nM | Cn1nncc1-c1cc2cc(Nc3cc(C(C)(N)C(F)(F)F)ccn3)ncc2c(N)n1 (single isomer, unassigned) [Example 29, N^6-(4-(2-amino-1,1,1-trifluoropropan-2-yl)pyridin-2-yl)-3-(1-methyl-1H-1,2,3-triazol-5-yl)-2,7-naphthyridine-1,6-diamine] | –
4 | 0.036 nM | CNC(C)(c1ccnc(Nc2cc3cc(-c4cnnn4C)nc(N)c3cn2)c1)C(C)C (single isomer, unassigned) [Example 30, 3-(1-methyl-1H-1,2,3-triazol-5-yl)-N^6-(4-(3-methyl-2-(methylamino)butan-2-yl)pyridin-2-yl)-2,7-naphthyridine-1,6-diamine] | –
5 | 0.03 nM | CNC(C)(c1ccnc(Nc2cc3cc(-c4cnnn4C)nc(N)c3cn2)c1)C(C)C (single isomer, unassigned) [Example 31, 3-(1-methyl-1H-1,2,3-triazol-5-yl)-N^6-(4-(3-methyl-2-(methylamino)butan-2-yl)pyridin-2-yl)-2,7-naphthyridine-1,6-diamine] | –
6 | 0.087 nM | CNC(C)(COC)c1ccnc(Nc2cc3cc(-c4cnnn4C)nc(N)c3cn2)c1 (single isomer, unassigned) [Example 32, N^6-(4-(1-methoxy-2-(methylamino)propan-2-yl)pyridin-2-yl)-3-(1-methyl-1H-1,2,3-triazol-5-yl)-2,7-naphthyridine-1,6-diamine] | –
7 | 0.25 nM | CNC(C)(COC)c1ccnc(Nc2cc3cc(-c4cnnn4C)nc(N)c3cn2)c1 (single isomer, unassigned) [Example 33, N^6-(4-(1-methoxy-2-(methylamino)propan-2-yl)pyridin-2-yl)-3-(1-methyl-1H-1,2,3-triazol-5-yl)-2,7-naphthyridine-1,6-diamine] | –
8 | 0.23 nM | CNC(c1ccnc(Nc2cc3cc(-c4cnnn4C)nc(N)c3cn2)c1)C(C)(C)C (single isomer, unassigned) [Example 34, N^6-(4-(2,2-dimethyl-1-(methylamino)propyl)pyridin-2-yl)-3-(1-methyl-1H-1,2,3-triazol-5-yl)-2,7-naphthyridine-1,6-diamine] | –
9 | 0.32 nM | CNC(c1ccnc(Nc2cc3cc(-c4cnnn4C)nc(N)c3cn2)c1)C(C)(C)C (single isomer, unassigned) [Example 35, N^6-(4-(2,2-dimethyl-1-(methylamino)propyl)pyridin-2-yl)-3-(1-methyl-1H-1,2,3-triazol-5-yl)-2,7-naphthyridine-1,6-diamine] | –
10 | 0.057 nM | CCC(N)(CC)c1cc(Nc2cc3cc(-c4cnnn4C)nc(N)c3cn2)ncn1 [Example 23, N^6-(6-(3-aminopentan-3-yl)pyrimidin-4-yl)-3-(1-methyl-1H-1,2,3-triazol-5-yl)-2,7-naphthyridine-1,6-diamine] | –
11 | 0.089 nM | CNC1(c2ccnc(Nc3cc4cc(-c5cnnn5C)nc(N)c4cn3)c2)CCC1 [Example 24, 3-(1-methyl-1H-1,2,3-triazol-5-y1)-N^6-(4-(1-(methylamino)cyclobutyl)pyridin-2-yl)-2,7-naphthyridine-1,6-diamine] | –
12 | 0.073 nM | CNC1(c2ccnc(Nc3cc4cc(-c5cnnn5C)nc(N)c4cn3)c2)CCCC1 [Example 27, 3-(1-methyl-1H-1,2,3-triazol-5-y1)-N^6-(4-(1-(methylamino)cyclopentyl)pyridin-2-yl)-2,7-naphthyridine-1,6-diamine] | –
13 | 0.061 nM | CN(C)C(C)(C)c1ccnc(Nc2cc3cc(-c4cnnn4C)nc(N)c3cn2)c1 [Example 36, N^6-(4-(2-(dimethylamino)propan-2-yl)pyridin-2-yl)-3-(1-methyl-1H-1,2,3-triazol-5-yl)-2,7-naphthyridine-1,6-diamine] | –
14 | 0.059 nM | CCn1nncc1-c1cc2cc(Nc3cc(C(C)(C)NC)ccn3)ncc2c(N)n1 [Example 37, 3-(1-ethyl-1H-1,2,3-triazol-5-yl)-N^6-(4-(2-(methylamino)propan-2-yl)pyridin-2-yl)-2,7-naphthyridine-1,6-diamine] | –
15 | 0.019 nM | CCn1nncc1-c1cc2cc(Nc3cc(C4(N)CCCC4)ccn3)ncc2c(N)n1 [Example 38, N^6-(4-(1-aminocyclopentyl)pyridin-2-yl)-3-(1-ethyl-1H-1,2,3-triazol-5-yl)-2,7-naphthyridine-1,6-diamine] | –
16 | – | N#CCc1ccc(Nc2nc(Nc3cc(C4CC4)[nH]n3)c3ccccc3n2)cc1 [MKI-2, 2-(4-((4-((5-cyclopropyl-1H-pyrazol-3-yl)amino)quinazolin-2-yl)amino)phenyl)acetonitrile] | 6.85
